These results are taken from patent US12036222B2, “Methods of treating cancers overexpressing CARM1 with EZH2 inhibitors and a PARP inhibitor” (The Wistar Institut of Anatomy and Biology, priority 2018, dated 2024).

Assay [1] has as its system BAF155Me. The assay can be described thus: Immunoblot for BAF155Me levels. The class given is cell-based, human. The settings on record: 10 μM GSK126, 7 days. The method, then:
FIG. 53 illustrates that the indicated CARM1-high cells were infected with the indicated shCARM1 or controls. Expression of CARM1 and BAF155Me levels and loading control (p-actin) was determined by immunoblot. FIG. 54 illustrates that the indicated cells were treated with 10 μM GSK126 or vehicle control for 7 days. Expression of BAF155 and a loading control (0-actin) was determined by immunoblot.

The test system of assay [2] is DAB2, DLC1, and NOXA. The assay can be described thus: qRT-PCR of EZH2/BAF155 target genes in cells. The format is cell-based, human. The settings on record: 10 μM GSK126. On the procedure:
FIG. 55 illustrates the relative expression of DAB2, DLC1, and NOXA in parental control and CARM1 knockout A1847 cells that were treated with 10 μM GSK126 or vehicle controls. mRNA expression of the indicated genes was determined by qRT-PCR. *p<0.002 compared with parental controls.
FIG. 56 illustrates the relative expression of DAB2, DLC1, and NOXA in CARM1 high OVCAR10 cells treated with 10 μM GSK126 or vehicle control for 7 days. Expression of the indicated BAF155/EZH2 target genes was determined by qRT-PCR. *p<0.001. Mean of three independent experiments with SEM.
RNA was isolated by RNeasy Mini Kit (Qiagen). mRNA relative expression for DAB2, DLC1, and PMAIP was determined using SYBR green 1-step iScript (Bio-Rad) with a Life Technologies QuantStudio 3. The primers were: 5′-[…]-3′ (DAB2 forward (SEQ ID NO: 2)) and 5′-[…]-3′ (DAB2 reverse (SEQ ID NO: 3)); 5′-[…]-3′ (DLC1 forward (SEQ ID NO: 4)) and 5′-[…]-3′ (DLC1 reverse (SEQ ID NO: 5)); 5′-[…]-3′ (NOXA forward (SEQ ID NO: 6)) and 5′-[…]-3′ (NOXA reverse (SEQ ID NO: 7)); and 5′-[…]-3′ (TIMP3 forward (SEQ ID NO: 8)) and 5′-[…]-3′ (TIMP3 reverse (SEQ ID NO: 9)).

For assay [3], the system named is CARM1-depleted cells. The assay can be described thus: Colony formation assay with CARM1-depleted cells. The format is cell-based. The settings on record: CARM1-depleted vs normal cells, GSK126 vs DMSO. The method, then:
To confirm the relationship between CARM1 overexpression and sensitivity to EZH2 inhibition, further studies were performed to assess the impact of CARM1 depletion. In FIG. 9, a Western blot of CARM1 and BAF155me2 in CARM1 depleted cells with a control (Actin) is shown. In addition, the results of a colony formation assay (unstained, magnified) with normal and CARM1-depleted cells, in DMSO (control) and treated with GSK126, are shown in FIG. 10. A colony formation assay with normal and CARM1-depleted cells, in DMSO (control) and after treatment with GSK126 is shown in FIG. 11, with the results quantified in FIG. 12. Finally, FIG. 13 illustrates the results of treatment of CARM1 depleted cells with GSK126.
500 to 5,000 cell were plated into a 24 well tissue culture plate and treated with the indicated compounds. Medium was changed every three days with appropriate drug doses for 12 days or until control wells became confluent. Colonies were washed twice with PBS and fixed with 10% methanol and 10% acetic acid in distilled water. Fixed colonies were stained with 0.005% crystal violet. Integrated density was measured using NIH ImageJ software.

Assay [4] concerns the target T1, PRC2 subunits EZH2 and SUZ12 interaction (Homo sapiens, UniProt Q15910).
T1 construct: endogenous in cells; host or cells: A1847 cells (CARM1-high)
The assay can be described thus: Immunoprecipitation of EZH2 and immunoblot for SUZ12. The format is cell-based. The settings on record: A1847 cells, 10 μM GSK126, 7 days. On the procedure: A1847 cells were treated with 10 μM GSK126 or vehicle control for 7 days. The cells were subjected to immunoprecipitation (IP) analysis by using an anti-EZH2 antibody. The immunoprecipitated product was examined for EZH2 and SUZ12 expression by immunoblot. An isotype-matched IgG was used as a control.

In assay [5] the test system is TIMP3 promoter. The assay can be described thus: ChIP-qPCR at TIMP3 promoter. The class given is cell-based, human. The settings on record: A1847 cells, 10 μM GSK126. On the procedure: FIGS. 62 to 65 illustrate the results of a ChIP analysis in parental control and CARM1 knockout A1847 cells treated with 10 μM GSK126 or vehicle controls. The cells were subjected to ChIP analysis using anti-EZH2 (FIG. 62), anti-H3K27Me3 (FIG. 63), anti-BAF155 (FIG. 64), or anti-RNA Pol II (FIG. 65) antibodies. An isotype-matched IgG was used as a negative control. ChIP products were subjected to qPCR analysis using primers specific for the promoter regions of the human TIMP3 genes. Mean of three independent experiments with SEM.* p<0.001 compared with controls.
ChIP was performed as described in Tu et al. Developmental Cell(2011) 21:1077-91. The following antibodies were used to perform ChIP: anti-H3K27Me3 (Cell Signaling, Cat. No: 9733), anti-BAF155 (Santa Cruz, Cat. No: sc-9746), anti-RNA polymerase II (Santa Cruz, Cat. No: sc-899) or anti-EZH2 (Cell Signaling, Cat. No: 5246). An isotype matched IgG was used as a negative control. ChIP DNA was analyzed by quantitative PCR against the promoter of the indicated genes using the following primers: DAB2 Forward: 5′-[…]-3′ (SEQ ID NO: 10) and DAB2 Reverse: 5′-[…]-3′ (SEQ ID NO: 11); DLC1 Forward: 5′-[…]-3′ (SEQ ID NO: 12) and DLC1 Reverse: 5′-[…]-3′ (SEQ ID NO: 13); NOXA Forward: 5′-[…]-3′ (SEQ ID NO: 14) and NOXA Reverse: 5′-[…]-3′ (SEQ ID NO: 15); TIMP3 Forward: 5′-[…]-3′ (SEQ ID NO: 16) and TIMP3 Reverse: 5′-[…]-3′ (SEQ ID NO: 17).

T1 sequence (Q15910 whole entry): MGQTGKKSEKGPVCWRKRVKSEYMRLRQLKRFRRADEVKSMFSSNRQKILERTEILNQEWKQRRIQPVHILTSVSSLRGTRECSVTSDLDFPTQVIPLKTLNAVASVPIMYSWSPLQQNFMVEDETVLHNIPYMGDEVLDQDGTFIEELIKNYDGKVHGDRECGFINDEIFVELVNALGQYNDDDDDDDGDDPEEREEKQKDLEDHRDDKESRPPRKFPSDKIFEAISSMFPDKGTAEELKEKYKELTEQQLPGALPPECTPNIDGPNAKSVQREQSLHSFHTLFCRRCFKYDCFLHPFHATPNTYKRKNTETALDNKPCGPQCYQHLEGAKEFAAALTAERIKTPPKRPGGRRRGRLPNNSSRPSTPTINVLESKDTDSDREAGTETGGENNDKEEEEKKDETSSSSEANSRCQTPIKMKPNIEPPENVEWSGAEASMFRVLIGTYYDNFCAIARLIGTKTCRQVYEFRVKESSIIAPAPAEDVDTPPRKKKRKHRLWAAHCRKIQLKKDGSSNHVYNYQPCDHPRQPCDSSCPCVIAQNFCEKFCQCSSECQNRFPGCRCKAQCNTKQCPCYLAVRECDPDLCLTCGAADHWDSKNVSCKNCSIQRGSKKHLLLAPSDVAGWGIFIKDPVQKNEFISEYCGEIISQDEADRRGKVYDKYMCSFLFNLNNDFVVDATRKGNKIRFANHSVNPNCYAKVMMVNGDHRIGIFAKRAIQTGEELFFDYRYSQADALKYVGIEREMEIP
T1 sequence (Q15022 whole entry partner): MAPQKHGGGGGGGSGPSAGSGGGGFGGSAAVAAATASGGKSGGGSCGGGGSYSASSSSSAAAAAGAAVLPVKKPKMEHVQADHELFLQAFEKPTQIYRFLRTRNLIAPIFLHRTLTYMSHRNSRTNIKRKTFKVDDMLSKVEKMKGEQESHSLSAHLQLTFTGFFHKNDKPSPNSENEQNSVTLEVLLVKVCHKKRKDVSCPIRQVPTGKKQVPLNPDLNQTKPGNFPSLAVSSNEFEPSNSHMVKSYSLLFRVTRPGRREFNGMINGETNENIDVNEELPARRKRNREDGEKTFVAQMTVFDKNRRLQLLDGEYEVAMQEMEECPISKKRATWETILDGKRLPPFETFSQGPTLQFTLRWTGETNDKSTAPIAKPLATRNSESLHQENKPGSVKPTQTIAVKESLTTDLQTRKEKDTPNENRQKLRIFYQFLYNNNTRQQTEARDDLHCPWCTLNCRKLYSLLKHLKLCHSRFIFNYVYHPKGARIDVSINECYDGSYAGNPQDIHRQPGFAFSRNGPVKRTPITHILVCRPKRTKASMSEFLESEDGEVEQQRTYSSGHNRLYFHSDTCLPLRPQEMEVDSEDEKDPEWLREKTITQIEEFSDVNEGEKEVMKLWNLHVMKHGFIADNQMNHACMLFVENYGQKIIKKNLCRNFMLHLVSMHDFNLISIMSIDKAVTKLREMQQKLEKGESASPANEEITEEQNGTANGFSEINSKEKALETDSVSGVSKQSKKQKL
T1 sequence (O75530 whole entry partner): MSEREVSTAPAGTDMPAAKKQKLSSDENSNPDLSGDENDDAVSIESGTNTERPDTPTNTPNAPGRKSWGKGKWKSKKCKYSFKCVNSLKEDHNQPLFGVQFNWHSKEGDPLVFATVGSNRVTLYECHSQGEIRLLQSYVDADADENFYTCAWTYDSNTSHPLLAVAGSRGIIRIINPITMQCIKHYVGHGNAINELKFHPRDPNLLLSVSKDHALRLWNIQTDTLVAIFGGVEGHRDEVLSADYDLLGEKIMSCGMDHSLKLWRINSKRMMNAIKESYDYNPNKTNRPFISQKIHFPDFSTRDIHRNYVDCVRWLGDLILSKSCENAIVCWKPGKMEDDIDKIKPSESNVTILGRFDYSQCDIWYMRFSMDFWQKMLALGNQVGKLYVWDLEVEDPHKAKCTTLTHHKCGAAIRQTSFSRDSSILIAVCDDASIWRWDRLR

On to `CC[C@H](C)n1cc(C)c2c(C(=O)NCc3c(C)cc(C)[nH]c3=O)cc(-c3ccc(N4CCNCC4)nc3)cc21` [GSK126, (S)-1-(sec-butyl)-N-((4,6-dimethyl-2-oxo-1,2-dihydropyridin-3-yl)methyl)-3-methyl-6-(6-(piperazin-1-yl)pyridin-3-yl)-1H-indole-4-carboxamide], for which the BAF155Me levels entry in assay [1] is given as “did not affect BAF155Me levels”. In addition, the “expression of identified EZH2/BAF155 target genes (DAB2, DLC1, NOXA)” value in assay [2] (A1847, OVCAR10 cells) is “upregulated”. For the same molecule, the “additivity of GSK126 treatment and CARM1 knockout on target gene expression” value in assay [2] (CARM1 knockout A1847 cells) is reported as “did not appear to have additive effects”. Besides, in assay [3], the “sensitivity after CARM1 depletion” value is “abrogating the sensitivity”. For the same molecule, in assay [4], the “interaction between PRC2 subunits EZH2 and SUZ12” value is given as “did not weaken the interaction”. In addition, the “association of BAF155 and Pol II with the TIMP3 promoter” value in assay [5] is listed as “CARM1 KO but not EZH2 inhibitor GSK126 treatment decreased the association”.
